2 compounds from patent US20260144258A1, “CRYSTAL OF 2-(5-CYCLOPROPYL-3-(ETHYLSULFONYL)PYRIDIN-2-YL)-5-((TRIFLUOROMETHYL)SULFONYL)BENZO[D]OXAZOLE” (SUMITOMO CHEMICAL COMPANY, LIMITED, priority 2022, published 2026) can be followed below.

Assay type in all cases: in vivo
For assay [1], the system named is Argentine ant (Linepithema humile). Briefly: Test method 7: treated filter paper with sugar water, Argentine ant workers. To be noted: 12.5 ppm, 0.7 ml on filter paper, after 6 days, 25° C. Here is the method:
(§1) Next, an efficacy of the Type 1 crystal of Compound (1) on controlling harmful arthropods is shown by Test examples. The following tests were conducted at 25° C.
(§2) Test compound is made to a formulation according to a similar method to that described in the Formulation example 1, and thereto is added 1.8 g of sucrose, followed by adding 3% sugar water to prepare a dilution containing a prescribed concentration of the test compound.
A filter paper having a diameter of 5.5 cm is spread on the bottom of the cup, and then 0.7 ml of the dilutons are added dropwise to the filter paper, and ten (10) Argentine ant (Linepithema humile) workers are released into the cup, and the cup is covered with the lid. After 6 days, the number of the dead and distressed individuals of Argentine ant workers are counted, and the ratio of distressed and dead insects (%) is calculated by the following equation.
(§3) Here the dead individual is one whose behavior has completely stopped, and a distressed individual is one that cannot stand up when placed on its back and also cannot walk.

The test system of assay [2] is German cockroach (Blattella germanica). Briefly: Test method 8: treated filter paper with sugar water, German cockroach male adults. The following applies: 0.8 ppm, 0.7 ml on filter paper, after 5 days, 25° C. Here is the method: as §1, §2
A filter paper having a diameter of 5.5 cm is spread on the bottom of the cup, and then 0.7 ml of the dilutions are added dropwise to the filter paper, and five (5) German cockroach (Blattella germanica) male adults are released into the cup, and the cup is covered with the lid. After 5 days, the number of the dead and distressed individuals of German cockroach male adults are counted, and the ratio of distressed and dead insects (%) is calculated by the following equation.
as §3

The test system of assay [3] is cotton aphids (Aphis gossypii). Briefly: Test method 1: foliar spray on cucumber seedling infested with cotton aphids. The following applies: 500 ppm, spray 10 mL/seedling on cucumber, cotton aphids all stages, after 5 days, 25° C. Here is the method: Next, an efficacy of the Type 1 crystal of Compound (1) on controlling harmful arthropods is shown by Test examples. The following tests were conducted at 25° C. Test compound is made to a formulation according to a similar method to that described in the Formulation example 1, and thereto is added water containing 0.03 v/v % of Shindain (registered trademark) to prepare a dilution containing a prescribed concentration of the test compound. Cucumber (Cucumis sativus) seedling (on the developmental stage of the second true leaf) is planted in a cup, and approximately 30 cotton aphids (Aphis gossypii) (all stages of life) are released onto the seedling. After one day, the dilutions are sprayed onto the seedling at a ratio of 10 mL/seedling. After 5 days, the number of the surviving insects is examined, and the controlling value is calculated by the following equation. […]

For assay [4], the system named is common cutworms (Spodoptera litura). Briefly: Test method 2: sprayed cabbage leaf, common cutworm larvae. The following applies: 120 h, spray 20 mL/seedling on cabbage, second instar larvae, after 5 days, 25° C., read-out: mortality of insects. Here is the method:
as §1
(§4) Test compound is made to a formulation according to a similar method to that described in the Formulation example 1, and thereto is added water containing 0.03 v/v % of Shindain (registered trademark) to prepare a dilution containing a prescribed concentration of the test compound.
Cabbage (Brassicae oleracea) seedling (on the developmental stage of the second to third true leaf) is planted in a cup, and the dilutions are sprayed onto the seedling at a ratio of 20 mL/seedling. Thereafter, the stem and leaf thereof are cut out and then are placed into a cup that is lined with filter paper. Five (5) commom cutworms (Spodoptera litura) at the second instar larval stage are released into the cup. After 5 days, the number of the surviving insects is counted, and the mortality of insects is calculated by the following equation.
Mortality (%)=(1−Number of surviving insects/5)×100

For assay [5], the system named is diamondback moths (Plutella xylostella). Description: Test method 3: sprayed cabbage leaf, diamondback moth larvae. The following applies: 120 h, spray 20 mL/seedling on cabbage, second instar larvae, after 5 days, 25° C., read-out: mortality of insects. Here is the method:
as §1, §4
Cabbage (Brassicae oleracea) seedling (on the developmental stage of the second to third true leaf) is planted in a cup, and the dilutions are sprayed onto the seedling at a ratio of 20 mL/seedling. Thereafter, the stem and leaf thereof are cut out and then are placed into a cup that is lined with a filter paper. Five (5) diamondback moths (Plutella xylostella) at the second instar larval stage are released into the cup. After 5 days, the number of the surviving insects is counted, and the mortality of insects is calculated by the following equation.

For assay [6], the system named is common house mosquitos (Culex pipiens pallens). Briefly: Test method 4: mosquito larvae released into dilution. To be noted: 24 h, last instar larvae in dilution, after 1 day, 25° C., read-out: mortality of insects. Here is the method:
as §1
Test compound is made to a formulation according to a similar method to that described in the Formulation example 1, and thereto is added water to prepare a dilution containing a prescribed concentration of the test compound.
Into the dilution, 30 common house mosquitos (Culex pipiens pallens) at the last instar larval stage are released, and after 1 day, the state of the common house mosquito larvae is examined, and the mortality of insects is calculated by the following equation.
Mortality (%)=(Number of dead insects/Number of tested insects)×100

The test system of assay [7] is brown planthoppers (Nilaparvata lugens). Description: Test method 5: sprayed rice seedling, brown planthopper larvae. To be noted: 144 h, spray 10 mL/seedling on rice, third instar larvae, after 6 days, 25° C., read-out: mortality of insects. The method, then: as §1, §4
Rice (Oryza sativa) seedling (on the developmental stage of the second leaf) is planted in a cup, and the dilutions are sprayed onto the seedling at a ratio of 10 mL/seedling. Thereafter, twenty (20) brown planthoppers (Nilaparvata lugens) at the third instar larval stage are released into the cup. After 6 days, the number of the surviving insects is counted, and the mortality of insects is calculated by the following equation.
Mortality (%)=(1−Number of surviving insects/20)×100

The test system of assay [8] is cotton aphids (Aphis gossypii). Description: Test method 6: sprayed cucumber seedling with artificial rainfall, cotton aphids. The following applies: 1 ppm, spray 10 mL/seedling on cucumber, artificial rainfall 10 mm/hr for 1 hour, female adults released after one day, after 5 days, 25° C. Here is the method: Next, an efficacy of the Type 1 crystal of Compound (1) on controlling harmful arthropods is shown by Test examples. The following tests were conducted at 25° C. Test compound is made to a formulation according to a similar method to that described in the Formulation example 1, and thereto is added water containing 0.02 v/v % of Shindain (registered trademark) to prepare a dilution containing a prescribed concentration of the test compound. Only the second true leaves of Cucumber (Cucumis sativus) seedling (on the developmental stage of the third true leaf) are retained, and the other leaves are cut off, and the dilutions are sprayed onto the seedling at a ratio of 10 mL/seedling. After the dilution, which is treated, is dried, rain is given to the cucumber seedling with an artificial rainfall device at 10 mm/hr for 1 hour. After one day, 10 cotton aphids (Aphis gossypii) female adults are released onto the seedling. After 5 days, the number of the surviving insects is examined and the controlling value is calculated by the following equation. […]

As to `CCS(=O)(=O)c1cc(C2CC2)cnc1-c1nc2cc(S(=O)(=O)C(F)(F)F)ccc2o1` [amorphous of Compound (1), 2-(5-cyclopropyl-3-(ethylsulfonyl)pyridin-2-yl)-5-((trifluoromethyl)sulfonyl)benzo[d]oxazole], the “ratio of distressed and dead insects” value in assay [1] is recorded as 35%; in assay [2] it was 30%.

One may read the mortality as the percentage killed. For `CCS(=O)(=O)c1cc(C2CC2)cnc1-c1nc2cc(S(=O)(=O)C(F)(F)F)ccc2o1` [Type 1 crystal of Compound (1), 2-(5-cyclopropyl-3-(ethylsulfonyl)pyridin-2-yl)-5-((trifluoromethyl)sulfonyl)benzo[d]oxazole], the controlling value is given as no less than 90% in assay [3] and 40.5% in assay [8]. Further, the mortality at 500 ppm in assay [4] was no less than 80%; in assay [5] it was no less than 80%; in assay [7], no less than 90%. Besides, the mortality at 3.5 ppm in assay [6] is no less than 90%. In addition, the “ratio of distressed and dead insects” value in assay [1] and in assay [2] was 100% in each case.
